Experimental data reported in patent publication US12358894B2 (priority 2019, dated 2025).

Test system: pathogens of rice blast
Format: cell-based
Conditions: test solution 2000 ppm, 1,000 μl on oatmeal culture medium, 4-mm rice blast disc, 25° C., 6 days; calculated from elongation length of hyphae with vs without treatment

Compound: COc1nc(-n2cccn2)nc(F)c1C(F)(F)F [Example 1, 6-fluoro-4-methoxy-2-(1-pyrazolyl)-5-(trifluoromethyl)pyrimidine]
- Preventive value: 100
